What all share (test): yeast two-hybrid, hormone-induced D14-MAX2 interaction
What all share (assay type): cell-based

In assay [1] the target is T1, AtD14 (with SsMAX2) (Arabidopsis thaliana, UniProt Q9SQR3).
T1 construct: gene D14; GAL4-BD fusion, with Saccharum spontaneum MAX2 as GAL4-AD fusion, yeast AH109; with F-box protein MAX2 homolog (D3), Saccharum spontaneum
T1 sequence (Q9SQR3 1-267): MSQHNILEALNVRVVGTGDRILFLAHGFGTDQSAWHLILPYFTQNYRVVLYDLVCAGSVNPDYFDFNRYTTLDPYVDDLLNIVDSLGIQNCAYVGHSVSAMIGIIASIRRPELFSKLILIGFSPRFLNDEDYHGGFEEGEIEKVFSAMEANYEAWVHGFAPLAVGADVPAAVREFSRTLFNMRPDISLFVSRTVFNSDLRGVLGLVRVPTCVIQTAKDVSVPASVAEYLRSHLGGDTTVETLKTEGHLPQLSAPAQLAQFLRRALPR
The conditions noted are these: 5 uM rac-GR24 versus DMSO; 30 °C, 4 days; partner SsMAX2.

In assay [2] the target is T2, SsD14b (with SsMAX2) (Saccharum spontaneum, UniProt Z9BCY6HYO0).
T2 construct: full-length CDS as GAL4-BD fusion (pGBKT7), SsMAX2 as GAL4-AD fusion (pGADT7), yeast AH109; with F-box protein MAX2 homolog (D3)
T2 sequence (Z9BCY6HYO0 1-310): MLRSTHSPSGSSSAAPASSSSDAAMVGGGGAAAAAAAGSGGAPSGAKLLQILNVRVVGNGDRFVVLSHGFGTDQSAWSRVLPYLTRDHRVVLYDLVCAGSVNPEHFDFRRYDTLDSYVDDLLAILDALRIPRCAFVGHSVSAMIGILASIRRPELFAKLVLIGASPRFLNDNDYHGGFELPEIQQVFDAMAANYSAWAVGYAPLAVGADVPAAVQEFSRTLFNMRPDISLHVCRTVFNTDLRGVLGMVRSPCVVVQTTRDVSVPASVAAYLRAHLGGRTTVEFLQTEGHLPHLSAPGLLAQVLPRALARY
The following applies: 5 uM rac-GR24 versus DMSO; 30 °C, 4 days; partner SsMAX2.

In assay [3] the target is T3, AtD14 (with SsMAX2) (Arabidopsis thaliana, UniProt Q9SQR3, R262P).
T3 construct: gene D14; GAL4-BD fusion, with Saccharum spontaneum MAX2 as GAL4-AD fusion, yeast AH109; with F-box protein MAX2 homolog (D3), Saccharum spontaneum
T3 sequence (Q9SQR3 1-267 R262P): T1 sequence (Q9SQR3 1-267) with R262P
The conditions noted are these: 5 uM rac-GR24 versus DMSO; 30 °C, 4 days; partner SsMAX2.

The target of assay [4] is T4, OsD14ΔN (with SsMAX2) (Oryza sativa, UniProt Q10QA5).
T4 construct: gene D14; N-terminally truncated (printed OsD14ΔN53; R261/R312 offset implies 51 residues removed), GAL4-BD fusion, with Saccharum spontaneum MAX2 as GAL4-AD fusion, yeast AH109; with F-box protein MAX2 homolog (D3), Saccharum spontaneum
T4 sequence (Q10QA5 54-318): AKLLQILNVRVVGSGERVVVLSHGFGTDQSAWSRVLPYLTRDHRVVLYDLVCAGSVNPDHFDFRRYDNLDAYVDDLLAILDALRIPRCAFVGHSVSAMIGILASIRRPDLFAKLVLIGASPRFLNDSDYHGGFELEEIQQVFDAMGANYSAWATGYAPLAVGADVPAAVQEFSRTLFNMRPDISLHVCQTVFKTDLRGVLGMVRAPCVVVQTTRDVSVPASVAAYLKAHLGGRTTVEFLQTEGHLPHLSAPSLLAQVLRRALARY
The following applies: 5 uM rac-GR24 versus DMSO; 30 °C, 4 days; partner SsMAX2.

For assay [5], the target named is T5, SsD14a (with SsMAX2) (Saccharum spontaneum, UniProt Z9T3V1O2D3).
T5 construct: full-length CDS as GAL4-BD fusion (pGBKT7), SsMAX2 as GAL4-AD fusion (pGADT7), yeast AH109; 7F5W is apo SsD14a lacking residues 1-49; with F-box protein MAX2 homolog (D3)
T5 sequence (Z9T3V1O2D3 1-316): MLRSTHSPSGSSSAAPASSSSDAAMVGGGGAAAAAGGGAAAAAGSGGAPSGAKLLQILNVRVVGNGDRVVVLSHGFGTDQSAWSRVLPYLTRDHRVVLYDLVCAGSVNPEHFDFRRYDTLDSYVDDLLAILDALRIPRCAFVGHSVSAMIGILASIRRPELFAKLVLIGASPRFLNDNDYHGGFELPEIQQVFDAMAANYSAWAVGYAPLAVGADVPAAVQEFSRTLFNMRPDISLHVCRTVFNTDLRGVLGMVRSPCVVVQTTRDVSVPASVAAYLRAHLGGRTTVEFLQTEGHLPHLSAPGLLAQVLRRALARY
The following applies: 5 uM rac-GR24 versus DMSO; 30 °C, 4 days; partner SsMAX2.

Assay [6] addresses T6, OsD14ΔN (with SsMAX2) (Oryza sativa, UniProt Q10QA5, R312P).
T6 construct: gene D14; N-terminally truncated (printed OsD14ΔN53; R261/R312 offset implies 51 residues removed), GAL4-BD fusion, with Saccharum spontaneum MAX2 as GAL4-AD fusion, yeast AH109; with F-box protein MAX2 homolog (D3), Saccharum spontaneum
T6 sequence (Q10QA5 54-318 R312P): T4 sequence (Q10QA5 54-318) with R259P
The following applies: 5 uM rac-GR24 versus DMSO; 30 °C, 4 days; partner SsMAX2; R312P in full-length count.

Where a chain is given by its changes, count along the chain named.

Consider `CC1=CC(OC=C2C(=O)OC3c4ccccc4CC23)OC1=O` (racemic) [rac-GR24], for which the “yeast two-hybrid, hormone-induced D14-MAX2 interaction” value in assay [1] is “SsMAX2 interacted with AtD14 in an SL-dependent manner”; in assay [2] it was “SL induced both SsD14a and SsD14b to interact with SsMAX2 in yeast”; in assay [3], “AtD14R262P and OsD14ΔNR261P, like wild-type proteins, still have strong hormone-dependent interactions with SsMAX2”; in assay [4], “like wild-type proteins, still have strong hormone-dependent interactions with SsMAX2”; in assay [5], “SL induced both SsD14a and SsD14b to interact with SsMAX2 in yeast”; in assay [6], “AtD14R262P and OsD14ΔNR261P, like wild-type proteins, still have strong hormone-dependent interactions with SsMAX2”.

These data come from PMC8632500, “Identification of Conserved and Divergent Strigolactone Receptors in Sugarcane Reveals a Key Residue Crucial for Plant Branching Control” (Frontiers in Plant Science, 2021).
